Where two headings read alike, the source gives them in different places. No end group written: not given here.
How the values were obtained:
collagen = experiment: Collagen stimulation, ELISA on fibroblast cell lines; type: cell-based
Experimental: (§1) Fibroblast cell lines were cultured under standard conditions and assayed for collagen and laminin using an ELISA system manufactured by Panvera (Madison, Wis.). Antibodies for collagen and laminin manufactured by Takara Shuzo Co., Ltd Japan. […] The other three peptides tested neither stimulated nor inhibited production (i.e. no effect was observed).

P. aeruginosa 27853 = experiment: Synergy between doxacycline and peptides, MBC; type: cell-based, Pseudomonas aeruginosa; conditions: for MBC, With doxacycline: doxacycline held at 10 ppm; for MBC, Without doxacycline: peptide alone
Excerpt: Synergy between doxacycline and various peptides was investigated against P. aeruginosa 27853. The following table illustrates the beneficial effects of combining doxacycline and the peptides, where the numbers are the minimum bactericidal concentration (MBC; μg/mL). When combined with the peptides, the doxacycline was held at 10 ppm concentration.

[1] = tested on: Pseudomonas aeruginosa ATCC 9027; experiment: Antimicrobial assay I, MIC by OD measurement; type: cell-based; conditions: 37° C. for 24 hours, absorbance 620 nm
[2] = tested on: Staphylococcus aureus ATCC 6538; experiment: Antimicrobial assay I, MIC by OD measurement; type: cell-based; conditions: 37° C. for 24 hours, absorbance 620 nm
[3] = tested on: yeast (Saccharomyces cerevisiae); experiment: Antimicrobial assay I, yeast assay in RPMI 1640; type: cell-based; conditions: RPMI 1640 media
BMKC = experiment: Anti-cancer assay, MTT, LD50; type: cell-based; conditions: BMKC cloned melanoma line, 24 hours with peptide
Excerpt: (§2) Numbers are LD50 values (μg/mL).

H1299 = experiment: Anti-cancer assay, MTT, LD50; type: cell-based; conditions: 24 hours with peptide, lung large cell carcinoma
Excerpt: as §2

HeLaS3 = experiment: Anti-cancer assay, MTT, LD50; type: cell-based; conditions: 24 hours with peptide, cervical carcinoma
Excerpt: as §2

MCF7 = experiment: Anti-cancer assay, MTT, LD50; type: cell-based; conditions: MCF7 breast adenocarcinoma line, MTT, 24 hours with peptide
Excerpt: as §2

PC3 = experiment: Anti-cancer assay, MTT, LD50; type: cell-based; conditions: 24 hours with peptide, prostate adenocarcinoma
Excerpt: as §2

SW480 = experiment: Anti-cancer assay, MTT, LD50; type: cell-based; conditions: SW480 colon adenocarcinoma line, 24 hours with peptide
Excerpt: as §2

in vitro [4] = type: cell-based, human; conditions: human, human red blood cells, pH 7, hemolytic assay, concentration at 50% hemolysis, 1 hour at 37° C.; read-out: LD50
P. aeruginosa H374 = type: cell-based, Pseudomonas aeruginosa; conditions: for FIC Index: 0.5 or less = synergy
How it was run: (§3)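 Synergy against efflux-mutant strains: two-fold dilutions of nalidixic acid or chloramphenicol tested with peptide held at ¼ of its MIC.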

P. aeruginosa H774 = type: cell-based, Pseudomonas aeruginosa; conditions: P. aeruginosa H744; nalidixic acid + peptide at ¼ MIC; 0.5 or less = synergy
How it was run: as §3

P. aeruginosa = type: cell-based, Pseudomonas aeruginosa; conditions: P. aeruginosa H744; MIC of nalidixic acid with peptide at ¼ MIC
How it was run: as §3

[5] = tested on: clinical tobramycin resistant strain 960890198-3c; experiment: Activity against drug resistant strains; type: cell-based; conditions: for activity against tr Pseudomonas 960890198-3c: clinical tobramycin resistant strain, Table 47; for activity against clinical tobramycin resistant strain: strain 960890198-3c
Experimental: (§4) Peptides were assayed for their activity against tobramycin sensitive and resistant strains.

[6] = tested on: tobramycin resistant (tr) Pseudomonas ATCC 13096; experiment: Activity against drug resistant strains; type: cell-based; conditions: for activity against tobramycin resistant versus tobramycin sensitive Pseudomonas: ATCC 13096 (tr) compared with ATCC 27853 (ts); for activity against tr Pseudomonas 13096: tobramycin resistant strain, Table 46
Experimental: as §4

[7] = tested on: tobramycin sensitive (ts) Pseudomonas ATCC 27853; experiment: Activity against drug resistant strains; type: cell-based; conditions: tobramycin sensitive strain
Experimental: as §4

WI38 = conditions: MTT, 24 hours with peptide; normal fibroblast line
in vitro [8] = conditions: human, WI38 normal lung fibroblast cells, LD50 WI38, WI38 normal lung fibroblast line, MTT, 24 hours with peptide
laminin = experiment: Laminin stimulation, ELISA on fibroblast cell lines; type: cell-based
Experimental: as §1

Escherichia coli 25922 = experiment: microbe, parasite or virus in culture
Excerpt: Synergy between peptide Shiva-10 (SEQ ID NO:4) and various antimicrobial agents was investigated against Escherichia coli 25922.
Synergy between tetracycline and various peptides was investigated against Escherichia coli 25922 MBC. […] When combined with the peptides, the concentration of tetracycline was held at 1.5 ppm.

[9] = tested on: human red blood cells (RBC); experiment: in vitro; type: cell-based; conditions: hemolytic assay, concentration at 50% hemolysis, 1 hour at 37° C.
S. aureus (MRSA) = type: cell-based, Staphylococcus aureus; conditions: mean of three; 16 to 20 hours at 35° C.
S. epidermidis C621 = type: cell-based, Staphylococcus epidermidis; conditions: mean of three; 16 to 20 hours at 35° C.
S. pyogenes M76 = experiment: Antimicrobial assays II, NCCLS broth microdilution MIC; type: cell-based, Streptococcus pyogenes; conditions: mean of three; 16 to 20 hours at 35° C.
S. pyogenes ATCC19615 = experiment: as above; type: cell-based, Streptococcus pyogenes; conditions: mean of three, in µg/mL
S. pneumoniae C718 = experiment: as above; type: cell-based, Streptococcus pneumoniae; conditions: mean of three
S. pneumoniae C719 = experiment: as above; type: cell-based, Streptococcus pneumoniae; conditions: mean of three, in µg/mL

TGFβ
Collagen stimulation (collagen): 60%

MPKWKVFKKIEKVGRNIRNGIVKAGPAIAVLGEAKALG-OH [SB-37 (P5; SEQ ID NO: 3)]
MBC, With doxacycline (P. aeruginosa 27853): 30 µg/mL
MBC, Without doxacycline (P. aeruginosa 27853): 200 µg/mL

FAKLLKLAAKKLL-NH2 [P56]
paerug9027 (MIC) [1]: 5 µg/mL
staph6538 (MIC) [2]: 200 µg/mL
yeast (MIC or MFC) [3]: 50 µg/mL
LD50 BMKC (BMKC): 205 µg/mL
H1299 LD50 (H1299): 370 µg/mL
HeLaS3 LD50 (HeLaS3): 300 µg/mL
LD50 MCF7 (MCF7): 500 µg/mL
PC3 LD50 (PC3): 435 µg/mL
LD50 SW480 (SW480): 215 µg/mL
HC50 at 1 h (in vitro [4]): 600 µg/mL
MIC Cm-comb. (P. aeruginosa H374; MIC of chloramphenicol with peptide at ¼ MIC): 16 µg/mL
MIC Nal-comb. (P. aeruginosa H374; MIC of nalidixic acid with peptide at ¼ MIC): 2500 µg/mL
FIC Index (P. aeruginosa H374; chloramphenicol + peptide at ¼ MIC): 1.25
FIC Index (P. aeruginosa H374; nalidixic acid + peptide at ¼ MIC, FIC=0.25+MIC comb/MIC alone): 0.75
FIC Index (P. aeruginosa H774): 1.25
MIC Nal-comb. (P. aeruginosa): 624 µg/mL
activity against tr Pseudomonas 960890198-3c [5]: >50
activity against clinical tobramycin resistant strain [5]: greater activity against clinical tobramycin resistant strain 960890198-3c
activity against tobramycin resistant versus tobramycin sensitive Pseudomonas [6]: greater activity against tobramycin resistant (tr) Pseudomonas ATCC 13096 than against tobramycin sensitive (ts) Pseudomonas ATCC 27853
activity against tr Pseudomonas 13096 [6]: 16
activity against ts Pseudomonas 27853 ([7]; Table 46): 125
activity against ts Pseudomonas 27853 ([7]; Table 47): 125
WI38 LD50 (WI38): 250 µg/mL
CC50 at 24 h (in vitro [8]): 250 µg/mL

FALALKALKKL-NH2 [P165]
paerug9027 (MIC) [1]: 25 µg/mL
staph6538 (MIC) [2]: 10 µg/mL
yeast (MIC or MFC) [3]: 25 µg/mL
LD50 BMKC (BMKC): 240 µg/mL
H1299 LD50 (H1299): 56 µg/mL
HeLaS3 LD50 (HeLaS3): 400 µg/mL
LD50 MCF7 (MCF7): 360 µg/mL
PC3 LD50 (PC3): 340 µg/mL
LD50 SW480 (SW480): 240 µg/mL
HC50 at 1 h (in vitro [4]): 350 µg/mL
Collagen stimulation (collagen): 0%
Laminin stimulation (laminin): 0%
WI38 LD50 (WI38): 470 µg/mL
CC50 at 24 h (in vitro [8]): 470 µg/mL

CC(C)C[C@H](NC(=O)[C@H](C)NC(=O)[C@H](CC(C)C)NC(=O)[C@H](CCCCN)NC(=O)[C@H](C)NC(=O)[C@H](CC(C)C)NC(=O)[C@H](CCCCN)NC(=O)[C@H](CCCCN)NC(=O)[C@H](C)NC(=O)[C@H](CC(C)C)NC(=O)[C@H](CCCCN)NC(=O)[C@H](C)NC(=O)[C@H](CC(C)C)NC(=O)[C@H](CCCCN)NC(=O)[C@H](CCCCN)NC(=O)[C@H](C)NC(=O)[C@@H](N)Cc1ccccc1)C(N)=O [FLAK 26AM (P35; SEQ ID NO: 17)]
MBC, Without tetracycline (Escherichia coli 25922; peptide alone): 50 µg/mL
MBC, With tetracycline (Escherichia coli 25922; tetracycline held at […]): 20 µg/mL
MBC, With doxacycline (P. aeruginosa 27853): 32 µg/mL
MBC, Without doxacycline (P. aeruginosa 27853): 50 µg/mL

FAKLLAKLAKKIL-NH2 [P125]
paerug9027 (MIC) [1]: 100 µg/mL
staph6538 (MIC) [2]: 10 µg/mL
yeast (MIC or MFC) [3]: 50 µg/mL
LD50 BMKC (BMKC): 220 µg/mL
H1299 LD50 (H1299): 76 µg/mL
HeLaS3 LD50 (HeLaS3): 220 µg/mL
LD50 MCF7 (MCF7): 90 µg/mL
PC3 LD50 (PC3): 145 µg/mL
LD50 SW480 (SW480): 125 µg/mL
LD50 [9]: > (> indicates greater than 1000)
activity against clinical tobramycin resistant strain [5]: greater activity against clinical tobramycin resistant strain 960890198-3c
activity against tobramycin resistant versus tobramycin sensitive Pseudomonas [6]: greater activity against tobramycin resistant (tr) Pseudomonas ATCC 13096 than against tobramycin sensitive (ts) Pseudomonas ATCC 27853
activity against tr Pseudomonas 13096 [6]: 4
activity against ts Pseudomonas 27853 ([7]; Table 46): 31
WI38 LD50 (WI38): 90 µg/mL
CC50 at 24 h (in vitro [8]): 90 µg/mL

FAKKLAKKLAKAL-NH2 [P74, FAKKLAKKLAKAL-NH2]
paerug9027 (MIC) [1]: 5 µg/mL
staph6538 (MIC) [2]: 15 µg/mL
yeast (MIC or MFC) [3]: 100 µg/mL
LD50 BMKC (BMKC): 460 µg/mL
H1299 LD50 (H1299): 670 µg/mL
HeLaS3 LD50 (HeLaS3): 260 µg/mL
LD50 MCF7 (MCF7): 465 µg/mL
PC3 LD50 (PC3): 660 µg/mL
LD50 SW480 (SW480): 340 µg/mL
LD50 [9]: > (> indicates greater than 1000)
activity against tr Pseudomonas 960890198-3c [5]: 25
activity against clinical tobramycin resistant strain [5]: greater activity against clinical tobramycin resistant strain 960890198-3c
activity against tobramycin resistant versus tobramycin sensitive Pseudomonas [6]: greater activity against tobramycin resistant (tr) Pseudomonas ATCC 13096 than against tobramycin sensitive (ts) Pseudomonas ATCC 27853
activity against tr Pseudomonas 13096 [6]: 16
activity against ts Pseudomonas 27853 ([7]; Table 46): 125
activity against ts Pseudomonas 27853 ([7]; Table 47): 125
WI38 LD50 (WI38): 335 µg/mL
CC50 at 24 h (in vitro [8]): 335 µg/mL

FAKLLALALKLKL-NH2 [P94]
paerug9027 (MIC) [1]: > (> indicates greater than 200 μg/mL)
staph6538 (MIC) [2]: 10 µg/mL
yeast (MIC or MFC) [3]: > (> indicates greater than 200 μg/mL)
S. aureus (MRSA) MIC (S. aureus (MRSA)): 16 µg/mL
S. epidermidis C621 MIC (S. epidermidis C621): 8 µg/mL
S. pyogenes M76 MIC (S. pyogenes M76): 8 µg/mL
S. pyogenes MIC (S. pyogenes ATCC19615): 8
S. pneumoniae MIC (S. pneumoniae C718): 64 µg/mL
S. pneumoniae MIC (S. pneumoniae C719): 128
LD50 BMKC (BMKC): 11 µg/mL
HeLaS3 LD50 (HeLaS3): > (> indicates greater than 1000)
LD50 MCF7 (MCF7): 65 µg/mL
HC50 at 1 h (in vitro [4]): 350 µg/mL
Collagen stimulation (collagen): 0%
Laminin stimulation (laminin): 0%
WI38 LD50 (WI38): 6 µg/mL
CC50 at 24 h (in vitro [8]): 6 µg/mL

C[C@H]1c2cccc(O)c2C(O)=C2C(=O)[C@]3(O)C(O)=C(C(N)=O)C(=O)[C@@H](N(C)C)[C@@H]3[C@@H](O)[C@@H]21 [Doxacycline]
MBC of doxacycline (P. aeruginosa 27853; doxacycline itself, printed in column With doxacycline): 100 µg/mL

From patent US20050209157A1, “Short bioactive peptides and methods for their use” (priority 2001, published 2005)
